According to ChEMBL document CHEMBL3352328, “Synthesis and biological evaluation of a new series of N-acyldiamines as potential antibacterial and antifungal agents” (2014):
Converted amounts (≈) assume the structure as drawn. The source made the active and inactive calls. No cut-off for these calls is given here.

Experiments:
Nakaseomyces glabratus = assay: Antifungal activity against Candida glabrata ATCC 90030 by broth microdilution method; type: functional
Pseudomonas aeruginosa [1] = assay: Antimicrobial activity against Pseudomonas aeruginosa ATCC 27853 by broth dilution method; type: functional
[2] = tested on: Staphylococcus epidermidis; assay: Bacteriostatic activity against Staphylococcus epidermidis ATCC 12228 after 24 hrs; type: functional, organism-based
Candida parapsilosis = assay: Antifungal activity against Candida parapsilosis ATCC 22019 by broth microdilution method; type: functional; conditions: Lodderomyces parapsilosis
Escherichia coli [3] = assay: Antimicrobial activity against Escherichia coli ATCC 11229 by broth dilution method; type: functional
Candida tropicalis = assay: Antifungal activity against Candida tropicalis ATCC 750 by broth microdilution method; type: functional
Staphylococcus aureus [4] = assay: Antimicrobial activity against Staphylococcus aureus ATCC 29213 by broth dilution method; type: functional
Candida albicans = assay: Antifungal activity against Candida albicans ATCC 18804 by broth microdilution method; type: functional
[5] = tested on: Staphylococcus epidermidis; assay: Antimicrobial activity against Staphylococcus epidermidis ATCC 12228 by broth dilution method; type: functional
Pseudomonas aeruginosa [6] = assay: Bacteriostatic activity against Pseudomonas aeruginosa ATCC 27853 after 24 hrs; type: functional, organism-based
Staphylococcus aureus [7] = assay: Bactericidal activity against methicillin-resistant Staphylococcus aureus clinical isolate 1 after 24 hrs; type: functional; conditions: isolate 1, 24 h
Staphylococcus aureus [8] = assay: Bactericidal activity against methicillin-resistant Staphylococcus aureus clinical isolate 13 after 24 hrs; type: functional; conditions: isolate 13, 24 h
Staphylococcus aureus [9] = assay: Bactericidal activity against methicillin-resistant Staphylococcus aureus clinical isolate 2 after 24 hrs; type: functional; conditions: isolate 2, 24 h
Staphylococcus aureus [10] = assay: Bactericidal activity against methicillin-resistant Staphylococcus aureus clinical isolate 17 after 24 hrs; type: functional; conditions: isolate 17, 24 h
Staphylococcus aureus [11] = assay: Bactericidal activity against methicillin-resistant Staphylococcus aureus clinical isolate 15 after 24 hrs; type: functional; conditions: isolate 15, 24 h
Staphylococcus aureus [12] = assay: Bactericidal activity against methicillin-resistant Staphylococcus aureus clinical isolate 21 after 24 hrs; type: functional; conditions: isolate 21, 24 h
Staphylococcus aureus [13] = assay: Bactericidal activity against methicillin-resistant Staphylococcus aureus clinical isolate 16 after 24 hrs; type: functional; conditions: isolate 16, 24 h
Staphylococcus aureus [14] = assay: Bactericidal activity against methicillin-resistant Staphylococcus aureus clinical isolate 6 after 24 hrs; type: functional; conditions: isolate 6, 24 h
Staphylococcus aureus [15] = assay: Bactericidal activity against methicillin-resistant Staphylococcus aureus clinical isolate 9 after 24 hrs; type: functional; conditions: isolate 9, 24 h
Staphylococcus aureus [16] = assay: Bactericidal activity against methicillin-resistant Staphylococcus aureus clinical isolate 3 after 24 hrs; type: functional; conditions: isolate 3, 24 h
Staphylococcus aureus [17] = assay: Bactericidal activity against Staphylococcus aureus ATCC 29213 after 24 hrs; type: functional; conditions: ATCC 29213, 24 h
Staphylococcus aureus [18] = assay: Bactericidal activity against methicillin-resistant Staphylococcus aureus clinical isolate 11 after 24 hrs; type: functional; conditions: isolate 11, 24 h
Staphylococcus aureus [19] = assay: Bactericidal activity against methicillin-resistant Staphylococcus aureus clinical isolate 8 after 24 hrs; type: functional; conditions: isolate 8, 24 h
Staphylococcus aureus [20] = assay: Bactericidal activity against methicillin-resistant Staphylococcus aureus clinical isolate after 24 hrs; type: functional
Staphylococcus aureus [21] = assay: Bactericidal activity against methicillin-resistant Staphylococcus aureus clinical isolate 4 after 24 hrs; type: functional; conditions: isolate 4, 24 h
Staphylococcus aureus [22] = assay: Bactericidal activity against methicillin-resistant Staphylococcus aureus clinical isolate 10 after 24 hrs; type: functional; conditions: isolate 10, 24 h
Staphylococcus aureus [23] = assay: Bactericidal activity against methicillin-resistant Staphylococcus aureus clinical isolate 20 after 24 hrs; type: functional; conditions: isolate 20, 24 h
Staphylococcus aureus [24] = assay: Bactericidal activity against methicillin-resistant Staphylococcus aureus clinical isolate 18 after 24 hrs; type: functional; conditions: isolate 18, 24 h
Staphylococcus aureus [25] = assay: Bactericidal activity against methicillin-resistant Staphylococcus aureus clinical isolate 14 after 24 hrs; type: functional; conditions: isolate 14, 24 h
Staphylococcus aureus [26] = assay: Bactericidal activity against methicillin-resistant Staphylococcus aureus clinical isolate 7 after 24 hrs; type: functional; conditions: isolate 7, 24 h
Escherichia coli [27] = assay: Bacteriostatic activity against Escherichia coli ATCC 11229 after 24 hrs; type: functional, organism-based
Staphylococcus aureus [28] = assay: Bactericidal activity against methicillin-resistant Staphylococcus aureus clinical isolate 19 after 24 hrs; type: functional; conditions: isolate 19, 24 h
[29] = tested on: Staphylococcus epidermidis; assay: Bactericidal activity against Staphylococcus epidermidis ATCC 12228 after 24 hrs; type: functional; conditions: ATCC 12228, 24 h
Staphylococcus aureus [30] = assay: Bactericidal activity against methicillin-resistant Staphylococcus aureus clinical isolate 5 after 24 hrs; type: functional; conditions: isolate 5, 24 h
Staphylococcus aureus [31] = assay: Bactericidal activity against methicillin-resistant Staphylococcus aureus clinical isolate 12 after 24 hrs; type: functional; conditions: isolate 12, 24 h
Escherichia coli [32] = assay: Bactericidal activity against Escherichia coli ATCC 11229 after 24 hrs; type: functional; conditions: ATCC 11229, 24 h
Staphylococcus aureus [33] = assay: Bacteriostatic activity against Staphylococcus aureus ATCC 29213 after 24 hrs; type: functional, organism-based
Pseudomonas aeruginosa [34] = assay: Bactericidal activity against Pseudomonas aeruginosa ATCC 27853 after 24 hrs; type: functional; conditions: ATCC 27853, 24 h

Compound	MIC (Nakaseomyces glabratus) [µg/mL]	MIC (Pseudomonas aeruginosa [1]) [µg/mL]	MIC (Candida parapsilosis) [µg/mL]	MIC (Escherichia coli [3]) [µg/mL]	MIC (Candida tropicalis) [µg/mL]	MIC (Staphylococcus aureus [4]) [µg/mL]	MIC (Candida albicans) [µg/mL]	MIC [5] [µg/mL]	MBC (Staphylococcus aureus [7]) [µg/mL]	MBC (Staphylococcus aureus [8]) [µg/mL]	MBC (Staphylococcus aureus [9]) [µg/mL]	MBC (Staphylococcus aureus [10]) [µg/mL]	MBC (Staphylococcus aureus [11]) [µg/mL]	MBC (Staphylococcus aureus [12]) [µg/mL]	MBC (Staphylococcus aureus [13]) [µg/mL]	MBC (Staphylococcus aureus [14]) [µg/mL]	MBC (Staphylococcus aureus [15]) [µg/mL]	MBC (Staphylococcus aureus [16]) [µg/mL]	MBC (Staphylococcus aureus [17]) [µg/mL]	MBC [29] [µg/mL]	further results
CCCCCCCCCCCCCC(=O)NCCCN	64 (≈ 225 µM)	1020 (≈ 3600 µM)	16 (≈ 56.2 µM)	> 1020	32 (≈ 112 µM)	> 1020	32 (≈ 112 µM)	1020 (≈ 3600 µM)													Activity [2]: Active; Activity (Pseudomonas aeruginosa [6]): Active
CCCCCCCC/C=C\CCCCCCCC(=O)NCCCN	4 (≈ 11.8 µM)	> 1020	4 (≈ 11.8 µM)	4 (≈ 11.8 µM)	4 (≈ 11.8 µM)	2 (≈ 5.91 µM)	2 (≈ 5.91 µM)	1 (≈ 2.95 µM)	16 (≈ 47.3 µM)	64 (≈ 189 µM)	16 (≈ 47.3 µM)	16 (≈ 47.3 µM)	16 (≈ 47.3 µM)	512 (≈ 1510 µM)	8 (≈ 23.6 µM)	64 (≈ 189 µM)	16 (≈ 47.3 µM)	16 (≈ 47.3 µM)	128 (≈ 378 µM)	16 (≈ 47.3 µM)	MBC (Staphylococcus aureus [18]): 16 µg/mL (≈ 47.3 µM); MBC (Staphylococcus aureus [19]): 16 µg/mL (≈ 47.3 µM); MIC50 (Staphylococcus aureus [20]): 16 µg/mL (≈ 47.3 µM); MIC90 (Staphylococcus aureus [20]): 512 µg/mL (≈ 1510 µM); MBC (Staphylococcus aureus [21]): 512 µg/mL (≈ 1510 µM); MBC (Staphylococcus aureus [22]): 8 µg/mL (≈ 23.6 µM); MBC (Staphylococcus aureus [23]): 1020 µg/mL (≈ 3020 µM); MBC (Staphylococcus aureus [24]): 8 µg/mL (≈ 23.6 µM); MBC (Staphylococcus aureus [25]): 1020 µg/mL (≈ 3020 µM); MBC (Staphylococcus aureus [26]): 16 µg/mL (≈ 47.3 µM); Activity (Escherichia coli [27]): Active; MBC (Staphylococcus aureus [28]): 4 µg/mL (≈ 11.8 µM); MBC (Staphylococcus aureus [30]): 16 µg/mL (≈ 47.3 µM); MBC (Staphylococcus aureus [31]): 16 µg/mL (≈ 47.3 µM)
CCCCCCCCCCCCCCCC(=O)NCCCCN	32 (≈ 98 µM)	> 1020	128 (≈ 392 µM)	1020 (≈ 3140 µM)	64 (≈ 196 µM)	512 (≈ 1570 µM)	8 (≈ 24.5 µM)	16 (≈ 49 µM)												128 (≈ 392 µM)	MBC (Escherichia coli [32]): 1020 µg/mL (≈ 3140 µM); Activity (Staphylococcus aureus [33]): Active
CCCCCCCCCCCCCCCC(=O)NCCCN	8 (≈ 25.6 µM)	> 1020	8 (≈ 25.6 µM)	32 (≈ 102 µM)	16 (≈ 51.2 µM)	> 1020	64 (≈ 205 µM)	4 (≈ 12.8 µM)												64 (≈ 205 µM)	Activity (Escherichia coli [27]): Active
CCCCCCCCCCCC(=O)NCCCCN	1020 (≈ 3790 µM)	32 (≈ 118 µM)	256 (≈ 947 µM)	64 (≈ 237 µM)	128 (≈ 473 µM)	64 (≈ 237 µM)	256 (≈ 947 µM)	16 (≈ 59.2 µM)											512 (≈ 1890 µM)	16 (≈ 59.2 µM)	MBC (Escherichia coli [32]): 64 µg/mL (≈ 237 µM); MBC (Pseudomonas aeruginosa [34]): 32 µg/mL (≈ 118 µM)
CN[C@H](CC(C)C)C(=O)N[C@H]1C(=O)N[C@@H](CC(N)=O)C(=O)N[C@H]2C(=O)N[C@H]3C(=O)N[C@H](C(=O)N[C@H](C(=O)O)c4cc(O)cc(O)c4-c4cc3ccc4O)[C@H](O)c3ccc(c(Cl)c3)Oc3cc2cc(c3O[C@@H]2O[C@H](CO)[C@@H](O)[C@H](O)[C@H]2O[C@H]2C[C@](C)(N)[C@H](O)[C@H](C)O2)Oc2ccc(cc2Cl)[C@H]1O [VANCOMYCIN]									1 (≈ 0.69 µM)	1 (≈ 0.69 µM)	1 (≈ 0.69 µM)	0.5 (≈ 0.345 µM)	1 (≈ 0.69 µM)	0.5 (≈ 0.345 µM)	1 (≈ 0.69 µM)	1 (≈ 0.69 µM)	1 (≈ 0.69 µM)	0.5 (≈ 0.345 µM)			MBC (Staphylococcus aureus [18]): 1 µg/mL (≈ 0.69 µM); MBC (Staphylococcus aureus [19]): 0.5 µg/mL (≈ 0.345 µM); MBC (Staphylococcus aureus [21]): 1 µg/mL (≈ 0.69 µM); MBC (Staphylococcus aureus [22]): 1 µg/mL (≈ 0.69 µM); MBC (Staphylococcus aureus [23]): 0.5 µg/mL (≈ 0.345 µM); MBC (Staphylococcus aureus [24]): 1 µg/mL (≈ 0.69 µM); MBC (Staphylococcus aureus [25]): 1 µg/mL (≈ 0.69 µM); MBC (Staphylococcus aureus [26]): 1 µg/mL (≈ 0.69 µM); MBC (Staphylococcus aureus [28]): 0.5 µg/mL (≈ 0.345 µM); MBC (Staphylococcus aureus [30]): 1 µg/mL (≈ 0.69 µM); MBC (Staphylococcus aureus [31]): 1 µg/mL (≈ 0.69 µM)
CCC(C)n1ncn(-c2ccc(N3CCN(c4ccc(OCC5COC(Cn6cncn6)(c6ccc(Cl)cc6Cl)O5)cc4)CC3)cc2)c1=O (configuration not stated) [ITRACONAZOLE]	256 (≈ 363 µM)		> 512		> 512		0.5 (≈ 0.709 µM)														
CCCCCCCCCCCC(=O)NCCN	16 (≈ 66 µM)	8 (≈ 33 µM)	16 (≈ 66 µM)	8 (≈ 33 µM)	16 (≈ 66 µM)	16 (≈ 66 µM)	128 (≈ 528 µM)	16 (≈ 66 µM)	1020 (≈ 4220 µM)	32 (≈ 132 µM)	256 (≈ 1060 µM)	256 (≈ 1060 µM)	1020 (≈ 4220 µM)	> 1020	1020 (≈ 4220 µM)	32 (≈ 132 µM)	32 (≈ 132 µM)	1020 (≈ 4220 µM)	16 (≈ 66 µM)	16 (≈ 66 µM)	MBC (Staphylococcus aureus [18]): > 1020 µg/mL; MBC (Staphylococcus aureus [19]): 16 µg/mL (≈ 66 µM); MIC50 (Staphylococcus aureus [20]): 32 µg/mL (≈ 132 µM); MIC90 (Staphylococcus aureus [20]): > 1020 µg/mL; MBC (Staphylococcus aureus [21]): 256 µg/mL (≈ 1060 µM); MBC (Staphylococcus aureus [22]): 32 µg/mL (≈ 132 µM); MBC (Escherichia coli [32]): 16 µg/mL (≈ 66 µM); MBC (Staphylococcus aureus [23]): 256 µg/mL (≈ 1060 µM); MBC (Staphylococcus aureus [24]): 32 µg/mL (≈ 132 µM); MBC (Pseudomonas aeruginosa [34]): 16 µg/mL (≈ 66 µM); MBC (Staphylococcus aureus [25]): > 1020 µg/mL; MBC (Staphylococcus aureus [26]): 32 µg/mL (≈ 132 µM); MBC (Staphylococcus aureus [28]): 128 µg/mL (≈ 528 µM); MBC (Staphylococcus aureus [30]): 32 µg/mL (≈ 132 µM); MBC (Staphylococcus aureus [31]): > 1020 µg/mL
